The values that follow are results of earlier work, collected in patent US20230046963A1, “METHOD FOR DYEING KERATINOUS MATERIAL, COMPRISING THE USE OF AN ORGANOSILICON COMPOUND, A DYEING COMPOUND AND A PRE-TREATMENT AGENT” (Henkel AG & Co. KGaA, priority 2019, published 2023).

For this data set the following is noted: 25° C.

With `O=C([O-])c1c(Cl)c(Cl)c(Cl)c(Cl)c1-c1c2c(Br)cc(=O)c(Br)c-2oc2c(Br)c(O)cc(Br)c12.O=C([O-])c1c(Cl)c(Cl)c(Cl)c(Cl)c1-c1c2c(Br)cc(=O)c(Br)c-2oc2c(Br)c(O)cc(Br)c12.[Na+].[Na+]` [Acid Red 92, disodium salt of 3,4,5,6-tetrachloro-2-(1,4,5,8-tetrabromo-6-hydroxy-3-oxoxanthen-9-yl)benzoic acid], the solubility in water result is recorded as “greater than 10 g/L”. On to `Nc1cc(S(=O)(=O)[O-])cc2cc(S(=O)(=O)[O-])c(N=Nc3ccccc3)c(O)c12.[Na+].[Na+]` [Acid Red 33, disodium salt of 5-amino-4-hydroxy-3-(phenylazo)-naphthalene-2,7-disulphonate], for which the solubility in water was 2.5 mg/mL. On to “mixture of the sodium salts of mono- and disulfonic acids of 2-(2-quinolyl)-1H-indene-1,3(2H)-dione [Acid Yellow 3]”, for which the solubility in water was 20 mg/mL. Regarding `O=C([O-])C1=NN(c2ccc(S(=O)(=O)[O-])cc2)C(=O)C1N=Nc1ccc(S(=O)(=O)[O-])cc1.[Na+].[Na+].[Na+]` (centres unmarked) [Acid Yellow 23, trisodium salt of 4,5-dihydro-5-oxo-1-(4-sulfophenyl)-4-((4-sulfophenyl)azo)-1H-pyrazole-3-carboxylic acid], the “solubility in water (in words)” value is recorded as “readily soluble in water”.

Turning to `O=S(=O)([O-])c1ccc(N=Nc2c(O)ccc3ccccc23)cc1.[Na+]` [Acid Orange 7, sodium salt of 4-[(2-hydroxy-1-naphthyl)azo]benzenesulfonate], the solubility in water result is on record as “more than 7 g/L”.
